Source: patent publication US9868715B2 (THE BOARD OF REGENTS OF THE UNIVERSITY OF TEXAS SYSTEMS, priority 2014, dated 2018)

How the values were obtained:
[1] = target: T1, human CBS (cystathionine-β-synthase) (Homo sapiens, UniProt P35520); assay: H2S production by recombinant CBS; format: biochemical; details: 100 μM compound; H2S production as % of control (100%)
T1 construct: GST (N); made in house; host or cells: E. coli BL21(DE3) Codon Plus
T1 sequence (P35520 1-551): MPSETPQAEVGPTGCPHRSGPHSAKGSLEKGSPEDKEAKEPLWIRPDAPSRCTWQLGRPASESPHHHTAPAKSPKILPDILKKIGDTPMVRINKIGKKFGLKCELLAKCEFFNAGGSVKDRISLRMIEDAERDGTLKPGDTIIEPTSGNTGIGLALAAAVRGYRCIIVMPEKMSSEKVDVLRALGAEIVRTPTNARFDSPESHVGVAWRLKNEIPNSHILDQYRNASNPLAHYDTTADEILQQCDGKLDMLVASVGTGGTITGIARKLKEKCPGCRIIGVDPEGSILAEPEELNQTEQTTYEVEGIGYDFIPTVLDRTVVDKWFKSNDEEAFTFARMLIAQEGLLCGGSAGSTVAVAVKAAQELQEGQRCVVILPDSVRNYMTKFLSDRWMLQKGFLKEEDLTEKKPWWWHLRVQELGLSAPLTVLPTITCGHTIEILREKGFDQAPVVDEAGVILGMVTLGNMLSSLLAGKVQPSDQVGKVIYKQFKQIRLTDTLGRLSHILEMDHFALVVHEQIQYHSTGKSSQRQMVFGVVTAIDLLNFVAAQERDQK
Protocol: Recombinant human CBS protein expression and purification. The expression and purification of human CBS was performed as described previously (Asimakopoulou et al. 2013, Br J Pharmacol. 169(4):922-32). Briefly, E. Coli BL21(DE3) Codon Plus cells (Stratagene, La Jolla, Calif., USA) containing the expression vector pGEX-Kg/GST-CBS were grown at 37° C. and 180 rpm in LuriaBertani (LB) broth medium containing 100 μg/ml ampicillin to an absorption of 0.6-0.8 at 600 nm. Protein expression was induced by addition of 0.1 mM IPTG (isopropyl-b-D-thiogalactopyranoside) and cells were further incubated at 30° C. overnight. The bacteria were harvested and sonicated in lysis buffer PBS (140 mM NaCl, 2.7 mM KCl, 10 mM Na2HPO4, 1.8 mM KH2PO4, pH 7.8) containing a protease inhibitors cocktail (Sigma). The protein lysate was loaded onto a GSTrap FF 1 ml affinity column (Amersham Biosciences) and the GST-CBS recombinant protein was eluted with the elution buffer (50 mM Tris-HCl, 10 mM reduced glutathione, pH 8.0) and then dialyzed and concentrated in 10 mM sodium phosphate buffer (pH 8.2) and DTT (1 mM).
Measurement of H2S production by recombinant CBS. The measurement of H2S production by recombinant CBS enzyme was performed as described (Asimakopoulou et al. 2013, Br J Pharmacol. 169(4):922-32). Briefly, each test consisted of a 100 μl reaction mixture in 50 mM sodium phosphate buffer pH 8.2 containing 1 μg of the purified human CBS enzyme, 0.01 mM pyridoxal-5′-phosphate (PLP), 10 mM L-cysteine and 0.5 mM homocysteine. […] The reaction was initiated by transferring the Eppendorf tubes from ice to a 37° C. shaking water bath. After 60 minutes of incubation at 37° C., the reaction was terminated by adding 1% ZnAc followed by 10% trichloroacetic acid. Subsequently, N,N-dimethylphenylendiamine sulfate (20 mM in 7.2 M HCl) and FeCl3 (30 mM in 1.2 M HCl) were added and the optical absorbance of the solutions was measured at 650 nm.

[2] = test system: transformed PSC (human pancreatic stellate cells); assay: PSC proliferation, AlamarBlue Cell Viability Assay; format: cell-based; details: for Inhibitory Effect (%) on PSC proliferation / inhibition at 10 µM: 10 μM; for Inhibitory Effect (%) on PSC proliferation / inhibition at 5 µM / inhibition at 10 µM / inhibition at 20 µM: mean of at least three independent experiments, NE = No effect; for inhibition at 5 µM / inhibition at 10 µM / inhibition at 20 µM: Homo sapiens, read-out: Inhibitory Effect (%) on PSC proliferation; for Antiproliferative effect on PSC, result in words: transformed PSC, AlamarBlue
Protocol: The calculated lipophilicity (cLogP) and topological polar surface area (tPSA) values of synthesized analogues are listed in Table 1. […] AlamarBlue is a non-toxic reagent that is converted to a highly fluorescent end product by viable cells.
Under an IRB-approved tissue protocol, discarded human resected pancreatic tissue (500 mm^3) was attained fresh from the operating room at the University of Texas Medical Branch. The tissue was minced and plated on a collagen-coated flask (15 μg/mL, Invitrogen) with DMEM (VWR; Radnor, Pa.) supplemented with penicillin 200 U/mL, streptomycin 200 μg/mL, amphotericin B 0.25 μg/mL and gentimicin 50 μg/mL (Invitrogen, Carlsbad Calif.), 10% fetal bovine serum (Lonza, Walkersville, Md.), 1% insulin-transferrin, selenium-ethanolamine (Gibco, Grand Island, N.Y.), and 1% non-essential amino acids (Sigma-Aldrich, St. Louis, Mo.). The human PSC were isolated by the outgrowth method.^41-43 The purity of PSC culture was confirmed by immunohistochemical staining for vimentin, α-smooth muscle actin, glial fibrillar acidic protein, or Oil red O staining. Primary PSC were transformed and immortalized for use in experiments using lentiviral vectors containing SV40 Large T antigen and human telomerase (plasmid #12245 and 12246; Addgene, Cambridge, Mass.). Cultures were maintained in DMEM with 10% FBS, at 37° C. in a humidified 95% O2/5% CO2 atmosphere.
Cell proliferation assay. Transformed PSC (3×10^3) were plated in 96-well plates, in sextuplicate. […] AlamarBlue reagent (10% sample volume, DAL1025) was added to each well per Invitrogen's protocol. Fluorescence was recorded using excitation/emission wavelengths of 544/590 nm and the SpectraMax M2 Microplate Reader (Molecular Devices, Sunnyvale Calif.).
Statistical analysis. Dose-response curves were generated by plotting fluorescence or absorbance versus log (compound concentration). A best-fit curve was created using nonlinear regression, and the IC50 or EC50 determined from the graph (GraphPad Prism 5; GraphPad Software Inc., La Jolla, Calif.). To analyze continuos variables, unpaired student t-tests and one-way ANOVA with Tukey-Kramer multiple comparisons post-test (GraphPad Prism 5). Significance was set at p<0.05.

[3] = Aqueous solubility by HPLC analysis method; format: physicochemical; details: in the form of HCl salt

Row | SMILES | activity at 100 µM [1] [%] | melting point [°C] | Inhibitory Effect (%) on PSC proliferation [2] [%] | inhibition at 5 µM [2] [%] | inhibition at 10 µM [2] [%] | inhibition at 20 µM [2] [%] | Antiproliferative effect on PSC, result in words [2] | Aqueous solubility compared with apigenin, result in words [3] | Aqueous solubility, saturated concentration [3] [mg/mL]
1 | COc1cc(OC)c2c(=O)cc(-c3ccc(OCCN4CCCC4)cc3)oc2c1 [Compound 16, 5,7-Dimethoxy-2-(4-(2-pyrrolidin-1-yl-ethoxy)phenyl)-chromen-4-one] | 131 | 114 to 115 | 66 | 48 | 66 | 98 | potent antiproliferative effects | significantly improved solubility | 13.7
2 | COc1cc(OC)c2c(=O)cc(-c3ccc(-c4ccc(F)nc4)cc3)oc2c1 [Compound 33, 2-(4-(6-Fluoropyridin-3-yl)phenyl)-5,7-dimethoxy-chromen-4-one] | 107 | 209 to 210 | – | – | 6 | 19 | substantial loss of the activity | – | –
3 | COc1cc(OC)c2c(=O)cc(-c3ccc(OCCBr)cc3)oc2c1 [Compound 7, 2-(4-(2-Bromoethoxy)phenyl)-5,7-dimethoxy-chromen-4-one] | 121 | 202 to 203 | – | – | – | 20 | slightly increased antiproliferative effects in comparison with 6 | – | –
4 | COc1cc(OC)c2c(=O)cc(-c3ccc(OCCN4CCCCC4)cc3)oc2c1 [Compound 14, 5,7-Dimethoxy-2-(4-(2-piperidin-1-yl-ethoxy)phenyl)-chromen-4-one] | 129 | 79 to 80 | 64 | 45 | 64 | 97 | potent antiproliferative effects | significantly improved solubility | 17.4
5 | COc1cc(OC)c2c(=O)cc(-c3ccc(OCCN)cc3)oc2c1 [Compound 20, 2-(4-(2-Aminoethoxy)-phenyl)-5,7-dimethoxy-chromen-4-one] | 119 | 165 to 166 | – | 6 | 35 | 70 | – | – | –
6 | COc1cc(OC)c2c(=O)cc(-c3ccc(OC4CCNCC4)cc3)oc2c1 [Compound 19, 5,7-Dimethoxy-2-(4-(piperidin-4-yloxy)-phenyl)-chromen-4-one] | 115 | 205 to 206 | – | – | 21 | – | – | – | –
7 | COc1cc(OC)c2c(=O)cc(-c3ccc(OCCN4CCN(C)CC4)cc3)oc2c1 [Compound 15, 5,7-Dimethoxy-2-(4-(2-(4-methylpiperazin-1-yl)ethoxy)phenyl)-chromen-4-one] | 124 | 144 to 145 | – | 22 | 42 | 67 | – | – | –
